Experimental data: patent US20120330023A1, “Alkyl Pyridinium Dicyanamides and Method For The Production Thereof” (LONZA AG, priority 2004, published 2012)

Experiment: water solubility / miscibility with water
Format: physicochemical

| Structure (SMILES) | water solubility (miscibility with water) |
| --- | --- |
| CCCC[n+]1cccc(C)c1.N#C[N-]C#N [N-butyl-3-methylpyridinium dicyanamide, 3-Methyl-1-butylpyridinium dicyanamide] | water-miscible |
| CCCCCCCC[n+]1cccc(C)c1.N#C[N-]C#N [N-octyl-3-methylpyridinium dicyanamide, 3-Methyl-1-octylpyridinium dicyanamide] | water-immiscible |
| CCCC[n+]1ccccc1.N#C[N-]C#N [N-butylpyridinium dicyanamide] | water-miscible |
| CCCCCCCC[n+]1ccccc1.N#C[N-]C#N [N-octylpyridinium dicyanamide] | water-immiscible |
